Patent EP0247723A2, “Compositions and methods for treating allergic conjuctivitis” (MERCK FROSST CANADA INC., priority 1986, dated 1987)
Marks after values point to notes of the source that are not given here.

Tested on: ANTIGEN-INDUCED VASCULAR PERMEABILITY CHANGES IN GUINEA-PIG CONJUNCTIVA
Test: Inhibition of antigen-induced ocular inflammation (vascular permeability, extravasation of [99mTc]-human serum albumin into the conjunctiva)
Type: in vivo
Settings: ovalbumin-sensitized guinea-pigs
Method: Guinea-pigs were actively sensitized to produce IgG1 and IgE antibodies to ovalbumin (2 weeks). Animals were then challenged topically in the eyes (10 µl of 2.5% w/v ovalbumin per eye) followed by intravenous administration of [^99mTc]-human serum albumin (0.25 mCi). Animals were then challenged with antigen either once or twice (2nd challenge 24 hours later). The response was a marked increase in vascular permeability as measured by extravasation of [^99mTc]-labelled human serum albumin into the conjunctiva.
To measure the inhibitory effect of Compounds I-IV, at varying times before antigen challenge, Compounds I-IV were administered either i.v. (1 mg/kg dosage) or topically (0.1% suspensions or_ solutions in 10 µl of 0.5% hydroxy ethylcellulose).

[1] = second challenge (24 hours later), topical 0.1% in 10 µl of 0.5% hydroxy ethylcellulose, pre-treat. time 5 min
[2] = single challenge, topical 0.1% in 10 µl of 0.5% hydroxy ethylcellulose, pre-treat. time 5 min

SMILES | % Inhib. [1] | % Inhib. [2] | % Inhib. (second challenge (24 hours later), i.v. 1 mg/kg, pre-treat. time 2 min) | % Inhib. (single challenge, i.v. 1 mg/kg, pre-treat. time 2 min) [%] | % Inhib. (second challenge (24 hours later), topical 0.1% in 10 µl of 0.5% hydroxy ethylcellulose, pre-treat. time 60 min)
CCCc1c(OCCCSc2ccc([C@H](O)[C@@H](C)CC(=O)O)cc2)ccc(C(C)=O)c1O (relative stereo) [II, (BS^*,YR^*)-4-(3-(4-acetyl-3-hydroxy-2-propyl-phenoxy)propylthio)-Y-hydroxy-B-methylbenzene-butanoic acid] | 30.3* % | 0% |  |  | 
CCCc1c(OCCCS(=O)(=O)c2ccc(C(=O)CCC(=O)O)cc2)ccc(C(C)=O)c1O [Compound I, 4-((3-(4-acetyl-3-hydroxy-2-propylphenoxy)-propyl)sulfonyl)-Y-oxobenzene butanoic acid] | 37.0** % | 1.7% | 42.2** % | 1.5 | 
COc1ccc2nc3cc(OC)c(=O)c(Br)c-3sc2c1 [III, 4-bromo-2,7-dimethoay-3H-phenothiazin-3-one] | 48.0* % | 38.8*** % |  |  | 
OCc1ccccc1C=CCc1cc2c(cc1O)CCO2 [IV, 2,3-dihydro-6-(3-(2-hydroxymethyl)phenyl-2-propenyl)-5-benzofuranol] |  | 28.8** % |  |  | 59.5* %
